What was measured:
Assay type in all cases: in vivo, SD rat
[1] = test system: ovariectomized osteoporotic rats (去卵巢骨质疏松大鼠); assay: Serum phosphorus in ovariectomized osteoporotic rats (Table 8); settings: for serum phosphorus content (result in words): compared with negative control group
[2] = test system: ovariectomized osteoporotic rats (去卵巢骨质疏松大鼠); assay: Serum alkaline phosphatase in ovariectomized osteoporotic rats (Table 9); settings: three months after surgery, compared with negative control group
[3] = test system: ovariectomized osteoporotic rats (去卵巢骨质疏松大鼠); assay: Serum calcium in ovariectomized osteoporotic rats (Table 7); settings: for serum calcium content (result in words): compared with negative control group
[4] = test system: ovariectomized osteoporotic rats (去卵巢骨质疏松大鼠); assay: Bone mineral content (total and trabecular) in ovariectomized osteoporotic rats (Table 3); settings: oral once daily, 1 month; calcitriol 5 μg/kg, emodin 5 μg/kg, calcitriol + emodin 5 μg/kg; right tibia
[5] = test system: ovariectomized osteoporotic rats (去卵巢骨质疏松大鼠); assay: Serum calcitonin in ovariectomized osteoporotic rats, radioimmunoassay (Table 4)
[6] = test system: ovariectomized osteoporotic rats (去卵巢骨质疏松大鼠); assay: Uterine wet weight in ovariectomized osteoporotic rats (Table 10); settings: three months after surgery; for uterine wet weight (result in words): compared with negative control group; for uterine wet weight: oral once daily, 1 month, nilestriol 1 mg/kg, calcitriol 5 μg/kg, emodin 5 μg/kg, calcitriol + emodin 5 μg/kg
[7] = test system: ovariectomized osteoporotic rats (去卵巢骨质疏松大鼠); assay: Serum estradiol in ovariectomized osteoporotic rats, radioimmunoassay (Table 6)
[8] = test system: ovariectomized osteoporotic rats (去卵巢骨质疏松大鼠); assay: Bone mineral density (total and trabecular) in ovariectomized osteoporotic rats (Table 2); settings: oral once daily, 1 month; calcitriol 5 μg/kg, emodin 5 μg/kg, calcitriol + emodin 5 μg/kg; right tibia
[9] = test system: ovariectomized osteoporotic rats (去卵巢骨质疏松大鼠); assay: Osteocalcin in ovariectomized osteoporotic rats, radioimmunoassay (Table 5)
[10] = three months after surgery, oral once daily, 1 month, nilestriol 1 mg/kg, calcitriol 5 μg/kg, emodin 5 μg/kg, calcitriol + emodin 5 μg/kg

Compound: Cc1cc(O)c2c(c1)C(=O)c1cc(O)cc(O)c1C2=O [大黄素组, 大黄素]
- phosphorus content ([1]; before surgery (baseline)): 1.58 ± 0.43 mmol/L
- serum phosphorus content (result in words) ([1]; three months after surgery): 血清钙和磷含量与阴性对照组相比上升
- phosphorus content [1, 10]: 1.73 ± 0.65 mmol/L
- serum alkaline phosphatase content (result in words) [2]: 与阴性对照组相比也出现下降
- calcium content ([3]; before surgery (baseline)): 4.21 ± 0.24 mmol/L
- serum calcium content (result in words) ([3]; three months after surgery): 血清钙和磷含量与阴性对照组相比上升
- calcium content [3, 10]: 4.21 ± 0.56 mmol/L
- bone mineral content (result in words) [4]: 产生一定的提高骨含量的作用
- serum calcitonin content ([5]; before surgery (baseline)): 222.43 ± 19.43 ng/L
- serum calcitonin content (result in words) ([5]; three months after surgery): 血清降钙素含量上升
- serum calcitonin content [5, 10]: 265.24 ± 22.43 ng/L
- uterine wet weight (result in words) [6]: 子宫湿重明显高于阴性对照组
- uterine wet weight [6]: 89.34 ± 19.32 mg
- serum estradiol content ([7]; before surgery (baseline)): 12.87 ± 2.01 pg/mL
- serum estradiol content (result in words) ([7]; three months after surgery): 血清雌二醇含量上升
- serum estradiol content [7, 10]: 14.67 ± 1.76 pg/mL
- bone mineral density (result in words) [8]: 产生一定的增强骨密度的作用
- osteocalcin content ([9]; before surgery (baseline)): 3.09 ± 1.21 ng/L
- osteocalcin content (result in words) ([9]; three months after surgery): 骨钙素含量上升
- osteocalcin content [9, 10]: 3.38 ± 0.98 ng/L

Compound: C#C[C@]1(O)[C@H](O)C[C@H]2[C@@H]3CCc4cc(OC5CCCC5)ccc4[C@H]3CC[C@@]21C [阳性对照组, 尼尔雌醇]
- phosphorus content ([1]; before surgery (baseline)): 1.55 ± 0.45 mmol/L
- serum phosphorus content (result in words) ([1]; three months after surgery): 血清钙和磷含量与阴性对照组相比上升
- phosphorus content [1, 10]: 1.87 ± 0.46 mmol/L
- serum alkaline phosphatase content (result in words) [2]: 与阴性对照组相比出现下降
- calcium content ([3]; before surgery (baseline)): 4.19 ± 0.43 mmol/L
- serum calcium content (result in words) ([3]; three months after surgery): 血清钙和磷含量与阴性对照组相比上升
- calcium content [3, 10]: 4.65 ± 0.12 mmol/L
- serum calcitonin content ([5]; before surgery (baseline)): 231.35 ± 20.11 ng/L
- serum calcitonin content [5, 10]: 459.34 ± 11.43 ng/L
- uterine wet weight (result in words) [6]: 子宫湿重明显高于阴性对照组
- uterine wet weight [6]: 118.43 ± 12.43 mg
- serum estradiol content ([7]; before surgery (baseline)): 12.65 ± 2.21 pg/mL
- serum estradiol content [7, 10]: 20.43 ± 1.54 pg/mL
- osteocalcin content ([9]; before surgery (baseline)): 2.98 ± 0.89 ng/L
- osteocalcin content [9, 10]: 4.12 ± 1.32 ng/L

Compound: C=C1/C(=C\C=C2/CCC[C@]3(C)[C@@H]([C@H](C)CCCC(C)(C)O)CC[C@@H]23)C[C@@H](O)C[C@@H]1O [骨化三醇组, 9,10-开环胆甾-5Z,7E,10(19)-三烯-1α,3β,25-三醇]
- phosphorus content ([1]; before surgery (baseline)): 1.61 ± 0.38 mmol/L
- serum phosphorus content (result in words) ([1]; three months after surgery): 血清钙和磷含量与阴性对照组相比上升
- phosphorus content [1, 10]: 1.71 ± 0.53 mmol/L
- serum alkaline phosphatase content (result in words) [2]: 与阴性对照组相比也出现下降
- calcium content ([3]; before surgery (baseline)): 4.10 ± 0.54 mmol/L
- serum calcium content (result in words) ([3]; three months after surgery): 血清钙和磷含量与阴性对照组相比上升
- calcium content [3, 10]: 4.24 ± 0.41 mmol/L
- bone mineral content (result in words) [4]: 产生一定的提高骨含量的作用
- serum calcitonin content ([5]; before surgery (baseline)): 241.23 ± 11.43 ng/L
- serum calcitonin content (result in words) ([5]; three months after surgery): 血清降钙素含量上升
- serum calcitonin content [5, 10]: 321.34 ± 13.43 ng/L
- uterine wet weight (result in words) [6]: 子宫湿重明显高于阴性对照组
- uterine wet weight [6]: 90.43 ± 10.43 mg
- serum estradiol content ([7]; before surgery (baseline)): 13.21 ± 1.56 pg/mL
- serum estradiol content (result in words) ([7]; three months after surgery): 血清雌二醇含量上升
- serum estradiol content [7, 10]: 15.34 ± 1.53 pg/mL
- bone mineral density (result in words) [8]: 产生一定的增强骨密度的作用
- osteocalcin content ([9]; before surgery (baseline)): 3.22 ± 1.22 ng/L
- osteocalcin content (result in words) ([9]; three months after surgery): 骨钙素含量上升
- osteocalcin content [9, 10]: 3.45 ± 1.21 ng/L

From patent publication CN109260209A, “一种骨化三醇软胶囊及其制备方法” (CP Pharmaceutical Qingdao Co Ltd, priority 2018, dated 2019)
